Assay results as given in patent US9669078B2, “PD-L1 based immunotherapy” (Herlev Hospital, priority 2011, dated 2017).
“Also recorded” adds a separate entry of the source. Like-named read-outs stand apart in the source and are kept apart here.

Experiments:
T2-cells = assay: 51Cr-release cytotoxicity assay, T2-cells; assay type: cell-based
Description: Conventional ^51Cr-release assays for CTL-mediated cytotoxicity were carried out as described elsewhere (Andersen et al., 1999). Target cells were T2 with and without PDL101 (FIG. 3a) and the HLA-A2+ breast cancer cell line the breast cancer cell line MDA-MB-231 (FIG. 3b) (available at the American Type Culture Collection (ATCC)).
(§1) Conventional ^51Cr-release assays for CTL-mediated cytotoxicity were carried out as described in Andersen et al., J Immunol 1999. Target cells were T2-cells, HLA-A2^+ EBV transformed B-cell line (KIG-BCL), autologous matured DC (mDC), HLA-A2^+ melanoma cell lines (MM1312.07 and MM.909.06) with or without IFN-γ (100 U/ml) addition for 2 days. T2-cells and KIG-BCL were pulsed with PD-L1 recombinant protein (Sin θ Biological Inc.) for 3 hr. at 37° C. prior addition of chromium. Lysis of T2-cells was blocked using anti HLA-A2 FITC conjugated antibody (2 ug/100 ul, BD Biosciences).

[1] = system: HLA-A2+ EBV transformed B-cell line (KIG-BCL); assay type: cell-based; conditions: 51Cr-release
Description: as §1

PBMC [2] = assay: IFN-γ ELISPOT assay; assay type: cell-based, human; conditions: for specific T-cell responses, IFN-γ ELISPOT: PBMC from HLA-A2+ cancer patients (breast cancer, melanoma, renal cell carcinoma) stimulated once with peptide in vitro
Text: The ELISPOT assay was used to quantify peptide specific IFN-γ releasing effector cells as described previously (Andersen et al., 2001, Cancer Res. 61:869-872). In some experiments PBMC were stimulated once in vitro with peptide prior to analysis as described (McCutcheon et al., 1997, J Immunol Methods 210:149-166) to extend the sensitivity of the assay. Briefly, nitrocellulose bottomed 96-well plates (MultiScreen MAIP N45; Millipore) were coated overnight with IFN-γ capture mAb (Mabtech). The wells were washed, blocked by X-vivo medium and the effector cells (PBMC collected and when indicated stimulated as described above) were added in duplicates at different cell concentrations, with or without 10 μM peptide. The plates were incubated overnight. The following day, medium was discarded and the wells were washed prior to addition of the relevant biotinylated secondary Ab (Mabtech). The plates were incubated at room temperature (RT) for 2 hours, washed, and Avidin-enzyme conjugate (AP-Avidin; Calbiochem/Invitrogen Life Technologies) was added to each well. Plates were incubated at RT for 1 hour and the enzyme substrate NBT/BCIP (Invitrogen Life Technologies) was added to each well and incubated at RT for 5-10 min. Upon the emergence of dark purple spots, the reaction was terminated by washing with tap water. The spots were counted using the ImmunoSpot Series 2.0 Analyzer (CTL Analyzers).
(§2) In the present study the ELISPOT was performed according to the guidelines provided by CIP (http://cimt.eu/cimt/files/dl/cip_guidelines.pdf). In some experiments PBMC were stimulated once in vitro with peptide prior to analysis as described to extend the sensitivity of the assay. Briefly, nitrocellulose bottomed 96-well plates (MultiScreen MAIP N45; Millipore) were coated overnight with the relevant antibodies. The wells were washed, blocked by X-vivo medium and the effector cells were added if possible in triplicates otherwise in duplicates at different cell concentrations, with or without peptide. The plates were incubated overnight. The following day, medium was discarded and the wells were washed prior to addition of the relevant biotinylated secondary Ab (Mabtech), followed by the Avidin-enzyme conjugate (AP-Avidin; Calbiochem/Invitrogen Life Technologies) and finally the enzyme substrate NBT/BCIP (Invitrogen Life Technologies). The spots were counted using the ImmunoSpot Series 2.0 Analyzer (CTL Analyzers). Definition of an ELISPOT response was based on the guidelines and recommendations provided by CIP by an empirical or a statistical approach; the former implies setting a threshold to represent a biological response. […] The non-parametric Distribution free resampling (DFR) test gives a way of formally comparing antigen stimulated wells with negative control wells. As a minimum the ELISPOT assay must be performed at least in triplets. Furthermore, the non-parametric unpaired Mann-Whitney test was used to compare PD-L101-specific responders between cancer patients and healthy donors.

PBMC [3] = assay: TNF-α ELISPOT; assay type: cell-based, human; conditions: PBMC from IFN-γ-responding patients, triplicates
Description: In addition to determining the presence of specific T-cells using IFNγ as a marker, TNFα was also used as a marker. Thus, an ELISPOT assay was performed essentially as described above with the PDL101 peptide including a stimulation once in vitro with said peptide, except that TNFα antibodies were used in place of IFNγ antibodies. FIG. 2B show the results.
In the present study the ELISPOT was performed according to the guidelines provided by CIP (http://cimt.eu/cimt/files/dl/cip_guidelines.pdf). In some experiments PBMC were stimulated once in vitro with peptide prior to analysis as described to extend the sensitivity of the assay. Briefly, nitrocellulose bottomed 96-well plates (MultiScreen MAIP N45; Millipore) were coated overnight with the relevant antibodies. The wells were washed, blocked by X-vivo medium and the effector cells were added if possible in triplicates otherwise in duplicates at different cell concentrations, with or without peptide. The plates were incubated overnight. The following day, medium was discarded and the wells were washed prior to addition of the relevant biotinylated secondary Ab (Mabtech), followed by the Avidin-enzyme conjugate (AP-Avidin; Calbiochem/Invitrogen Life Technologies) and finally the enzyme substrate NBT/BCIP (Invitrogen Life Technologies). The spots were counted using the ImmunoSpot Series 2.0 Analyzer (CTL Analyzers). […]

PBMC [4] = assay: Granzyme B (GrB) ELISPOT; assay type: cell-based, human; conditions: PBMC from three melanoma patients (MM.03, MM.53, MM.135)
Description: as §2, with “As a minimum the ELISPOT assay must be performed at least in triplets. Furthermore, the non-parametric unpaired Mann-Whitney test was used to compare PD-L101-specific responders between cancer patients and healthy donors.” left out

HLA-A2 = assay: HLA peptide exchange technology and ELISA; assay type: binding, human; conditions: compared with high affinity epitopes HIV-1 pol476-484 and CMV pp65 pos495-503
Text: To evaluate the affinity of the HLA-peptide complex a UV exchange method was used in combination with a sandwich ELISA as previously described (19).

[5] = system: PD-L101-specific, CD8 T-cells among PBMC; assay: HLA-A2/PD-L101 tetramer staining by flow cytometry; assay type: cell-based, human; conditions: for PD-L1-tetramer positive cells: after three in vitro re-stimulations
Description: Two PD-L101-specific T cell culture were established. PBMC from a breast cancer patient (CM.21) and from a melanoma (MM.05) patient were stimulated with irradiated PD-L101-loaded autologous DC. The following day IL-7 and IL-12 (PeproTech, London, UK) were added. […] The day after peptide stimulation IL-2 (PeproTech, London, UK) was added.
For multimer/tetramer staining, tetramers coupled with PE and APC were prepared using MHC-peptide exchange technology. […] Dead cell marker 7-AAD-PerCP (BD Bioscience) added prior to FACS analysis.

[6] = system: PD-L101-specific T-cell bulk culture; assay: CD107a staining of T-cell bulk culture after peptide addition; assay type: cell-based, human; conditions: peptide added directly to T-cell bulk culture, FACS
Text: Subsequently, cells were stained with tetramer and surface markers and analysed FACSCANTO II (BD Biosciences, San Jose Calif., USA).

[7] = system: autologous matured DC (mDC); assay: 51Cr-release cytotoxicity assay, autologous matured DC; assay type: cell-based, human; conditions: mDC transfected by electroporation
Description: DC were generated from PBMC by adherence on culture dishes at 37° C. for 1-2 hr. in RPMI-1640. Adherent monocytes were cultured in RPMI-1640 supplemented with 10% fetal calf serum in the presence of IL-4 (250 U/ml) and GM-CSF (1000 U/ml) for 6 days. DC were matured by addition of […] (1000 U/ml), IL-6 (1000 U/ml) TNF-α (1000 U/ml) and PGE2 (1 ug/ml).
as §1
(§3) Stealth siRNA duplex for targeted silencing of PD-L1 and recommended Stealth siRNA negative control duplex for medium GC content were obtained from Invitrogen (Invitrogen, Paisley, UK). The Stealth PD-L1 siRNA duplex consisted of the sense sequence 5′-[…]3′ (SEQ ID NO: 21) and the anti-sense sequence 5′-[…]-3′ (SEQ ID NO:22). For PD-L1 silencing experiments, mDC were transfected with PD-L1 siRNA using electroporation parameters.

[8] = system: PD-L1 surface expression on mDC; assay: Flow cytometry of PD-L1 surface expression on mDC; assay type: cell-based, human; conditions: 24 hr after transfection; 0.05, 0.10 and 0.25 nmol
Description: as §3
(§4) Flow cytometry analysis was performed on a FACSCANTO II (BD Biosciences, San Jose Calif., USA) to determine PD-L1 surface expression on mDC before and after siRNA targeted silencing, T2-cells, KIG-BCL and HLA-A2^+ melanoma cell lines (MM1312.07 and MM.909.06) with or without IFN-γ treatment. Cells were washed in PBS/1% BSA and subsequently stained either with FITC- or PE-Cy5-conjugated anti-PD-L1 monoclonal antibody for 30 min on ice in PBS/1% BSA. Nonreactive isotype-matched antibody (BD Biosciences) was used as control. Fluorescence analyses were performed using FACSDiva software (BD Biosciences) and FlowJo software (Tree Star, Ashland Oreg., USA).

[9] = system: HLA-A2+ melanoma cell line MM1312.07; assay: 51Cr-release cytotoxicity assay, MM1312.07; assay type: cell-based; conditions: IFN-γ (100 U/ml) for 2 days
Description: as §1

[10] = system: HLA-A2+ melanoma cell line MM.909.06; assay: 51Cr-release cytotoxicity assay, MM.909.06; assay type: cell-based; conditions: IFN-γ (100 U/ml) for 2 days
Description: as §1

[11] = system: PD-L1 surface expression on MM1312.07; assay: Flow cytometry of PD-L1 surface expression on MM1312.07; assay type: cell-based; conditions: FACS
Description: as §4

[12] = system: PD-L1 surface expression on MM.909.06; assay: Flow cytometry of PD-L1 surface expression on MM.909.06; assay type: cell-based; conditions: FACS
Description: as §4

ILKEPVHGV [HIV-1 pol476-484, reference compound]
lysis of peptide- or protein-pulsed T2-cells by PD-L101-specific T-cell culture (T2-cells): no cytotoxic was observed
lysis of pulsed KIG-BCL by PD-L101-specific CTL [1]: not killed

PD-L1 protein: PD-L1 recombinant protein (Sin θ Biological Inc.), full length, used to pulse T2-cells and KIG-BCL
lysis of peptide- or protein-pulsed T2-cells by PD-L101-specific T-cell culture (T2-cells): recognized and killed
lysis of pulsed KIG-BCL by PD-L101-specific CTL [1]: not recognized

CLGVALTFI (PD-L1 peptide) [PDL111]
specific T-cell responses, IFN-γ ELISPOT (PBMC [2]): responses were detected

LLNAFTVTV (PD-L1 peptide) [PD-L101]
specific T-cell responses, IFN-γ ELISPOT (PBMC [2]): Frequent and strong responses were detected
specific T-cell responses, IFN-γ ELISPOT (PBMC [2]; listed as PDL101): responses were detected
PD-L101-specific cells, IFN-γ ELISPOT directly ex vivo (PBMC [2]; PBMC of responding patients, without peptide stimulation in vitro): significant responses; also recorded: readily detectable ex vivo in selected patients
TNF-α release by PD-L101-specific cells, TNF-α ELISPOT (PBMC [3]): released TNF-α
GrB ELISPOT responses (DFR test) (PBMC [4]): could be detected in the three patients; also recorded: significant responses against PD-L101 in two of the patients
frequency of PD-L101-specific, GrB releasing cells (PBMC [4]): 100-300 PD-L101-specific, GrB releasing cells per 5×10^5 PBMC
binding to HLA-A2 (HLA-A2): comparable to the high-affinity control epitope
PD-L1-reactive T cells by HLA-A2/PD-L101 tetramer, directly ex vivo ([5]; PBMC from two PD-L101-responding patients (CM.21, MM.05)): detectable ex vivo in both patients
PD-L1-tetramer positive cells ([5]; T-cells from a breast cancer patient): 13.52%
PD-L1-tetramer positive cells ([5]; T-cells from a malignant melanoma patient): 0.17%
frequency of PD-L1-specific T-cells by tetramer after one in vitro peptide stimulation ([5]; both patients (CM.21, MM.05)): markedly increased the frequency
HLA-A2/PD-L101-tetramer+, CD107a+ cells [6]: distinct populations
lysis of peptide- or protein-pulsed T2-cells by PD-L101-specific T-cell culture (T2-cells): killed; also recorded: lysed T2-cells pulsed with PD-L101 efficiently
lysis of peptide- or protein-pulsed T2-cells by PD-L101-specific T-cell culture (T2-cells; listed as PDL01): efficiently presented
lysis of pulsed KIG-BCL by PD-L101-specific CTL [1]: recognized

VILGAILLCL (PD-L1 peptide) [PDL114]
specific T-cell responses, IFN-γ ELISPOT (PBMC [2]): responses were detected

5′-CCUACUGGCAUUUGCUGAACGCAUU3′ (antisense AAUGCGUUCAGCAAAUGCCAGUAGG; listed as RNA, chemistry not given here) [PD-L1 siRNA]
killing of siRNA-transfected mDC by PD-L1-specific CTL cultures [7]: rescued the DC from being killed
PD-L1 protein surface expression on mDC after siRNA transfection [8]: reduced the level of PD-L1 protein expression

VILGAILLCLGVALTFIFRLRKG (PD-L1 peptide) [PDLong2]
lysis of pulsed KIG-BCL by PD-L101-specific CTL [1]: not killed

FMTYWHLLNAFTVTVPKDL (PD-L1 peptide) [PDLong1]
lysis of peptide- or protein-pulsed T2-cells by PD-L101-specific T-cell culture (T2-cells): take up, process and present
lysis of pulsed KIG-BCL by PD-L101-specific CTL [1]: recognized

B1: IFN-γ: cytokine added (100 U/ml, 2 days) to melanoma cell lines (protein, UniProt P01579 24-161, looked up)
Interferon gamma: QDPYVKEAENLKKYFNAGHSDVADNGTLFLGILKNWKEESDRKIMQSQIVSFYFKLFKNFKDDQSIQKSVETIKEDMNVKFFNSNKKKRDDFEKLTNYSVTDLNVQRKAIHELIQVMAELSPAAKTGKRKRSQMLFRG
effect of IFN-γ treatment on killing of MM1312.07 [9]: increased the killing of both melanoma cell lines
effect of IFN-γ treatment on killing of MM.909.06 [10]: increased the killing of both melanoma cell lines
effect of IFN-γ treatment on PD-L1 expression, MM1312.07 [11]: increased the expression of PD-L1 in both cell lines
effect of IFN-γ treatment on PD-L1 expression, MM.909.06 [12]: increased the expression of PD-L1 in both cell lines
